Data as given in the CheMixHub ionic liquid set.

Test: xn = mol fraction of the nth substance listed

[N-]=C=S.[NH4+] + CC[n+]1ccn(C)c1.N#C[S-]
100 kPa
Conditions	electrical conductivity [S/m]	viscosity [mPa·s]
313.15 K, x1 = 0.039	3.12	16.11
318.15 K, x1 = 0.039	–	14.28
318.15 K, x1 = 0.1395	3.28	16.71
323.15 K, x1 = 0.1395	3.71	14.61
328.15 K, x1 = 0.039	–	11.19
333.15 K, x1 = 0.099	–	10.92
343.15 K, x1 = 0.1395	–	9.2
348.15 K, x1 = 0.099	–	8.08
353.15 K, x1 = 0.099	–	7.28
353.15 K, x1 = 0.1395	–	7.48

OCCO + CC[n+]1ccn(C)c1.O=C([O-])C(F)(F)F
100 kPa, x1 = 1
Conditions	viscosity [mPa·s]
293.15 K	20.8
298.15 K	16.8
303.15 K	13.8
313.15 K	9.52

O=S(=O)([N-]S(=O)(=O)C(F)(F)F)C(F)(F)F.[Li+] + CC[n+]1ccn(C)c1.O=S(=O)([N-]S(=O)(=O)C(F)(F)F)C(F)(F)F
101 kPa
Conditions	electrical conductivity, x2 = 0.6878 [S/m]	electrical conductivity, x2 = 0.746 [S/m]	electrical conductivity, x2 = 0.7874 [S/m]	electrical conductivity, x2 = 0.8765 [S/m]	electrical conductivity, x2 = 0.9376 [S/m]	viscosity, x2 = 0.8 [mPa·s]
288.15 K	0.094	0.146	0.189	0.351	0.461	–
298.15 K	0.175	0.253	0.315	0.539	0.686	89.9
333.15 K	0.739	0.91	1.06	1.53	1.79	–
358.15 K	–	–	–	–	–	13.33

O=S(=O)([N-]S(=O)(=O)C(F)(F)F)C(F)(F)F.[Li+] + CC[n+]1ccn(C)c1.O=S(=O)([N-]S(=O)(=O)C(F)(F)F)C(F)(F)F + O
Conditions	electrical conductivity [S/m]	viscosity [mPa·s]
283 K, 101 kPa, x1 = 0.2649, x2 = 0	0.62	–
283 K, 101 kPa, x1 = 0.2649, x2 = 0.2649	0.37	90.3
283 K, 101 kPa, x1 = 0.4189, x2 = 0.2649	0.049	–
293 K, 101 kPa, x1 = 0.2649, x2 = 0	0.89	69.2
293 K, 101 kPa, x1 = 0.2649, x2 = 0.2649	0.56	55
293 K, 101 kPa, x1 = 0.4189, x2 = 0.2649	0.093	407
293.15 K, 100 kPa, x1 = 0.2745, x2 = 0.3509	–	55.7
293.15 K, 100 kPa, x1 = 0.3106, x2 = 0.3509	–	71.5
293.15 K, 100 kPa, x1 = 0.3509, x2 = 0.3509	–	111
293.15 K, 100 kPa, x1 = 0.3868, x2 = 0.3509	–	157
293.15 K, 100 kPa, x1 = 0.4189, x2 = 0.3509	–	220
293.15 K, 100 kPa, x1 = 0.4478, x2 = 0.3509	–	312
293.15 K, 100 kPa, x1 = 0.474, x2 = 0.3509	–	470
293.15 K, 100 kPa, x1 = 0.4978, x2 = 0.3509	–	715
298.1 K, 101 kPa, x1 = 0.2649, x2 = 0	1.04	55.3
298.1 K, 101 kPa, x1 = 0.2649, x2 = 0.2649	0.67	44.2
298.1 K, 101 kPa, x1 = 0.4189, x2 = 0.2649	0.12	293
298.15 K, 100 kPa, x1 = 0.2745, x2 = 0.3509	–	43.1
298.15 K, 100 kPa, x1 = 0.3106, x2 = 0.3509	–	55.3
298.15 K, 100 kPa, x1 = 0.3509, x2 = 0.3509	–	86.4
298.15 K, 100 kPa, x1 = 0.3868, x2 = 0.3509	–	120
298.15 K, 100 kPa, x1 = 0.4189, x2 = 0.3509	–	164
298.15 K, 100 kPa, x1 = 0.4478, x2 = 0.3509	–	227
298.15 K, 100 kPa, x1 = 0.474, x2 = 0.3509	–	336
298.15 K, 100 kPa, x1 = 0.4978, x2 = 0.3509	–	497
303 K, 101 kPa, x1 = 0.2649, x2 = 0	1.22	45.4
303 K, 101 kPa, x1 = 0.2649, x2 = 0.2649	0.8	36
303 K, 101 kPa, x1 = 0.4189, x2 = 0.2649	0.16	216
303.15 K, 100 kPa, x1 = 0.2745, x2 = 0.3509	–	34.6
303.15 K, 100 kPa, x1 = 0.3106, x2 = 0.3509	–	44.4
303.15 K, 100 kPa, x1 = 0.3509, x2 = 0.3509	–	62.3
303.15 K, 100 kPa, x1 = 0.3868, x2 = 0.3509	–	92.4
303.15 K, 100 kPa, x1 = 0.4189, x2 = 0.3509	–	126
303.15 K, 100 kPa, x1 = 0.4478, x2 = 0.3509	–	171
303.15 K, 100 kPa, x1 = 0.474, x2 = 0.3509	–	245
303.15 K, 100 kPa, x1 = 0.4978, x2 = 0.3509	–	356
313 K, 101 kPa, x1 = 0.2649, x2 = 0	1.6	30.9
313 K, 101 kPa, x1 = 0.2649, x2 = 0.2649	1.1	24.9
313 K, 101 kPa, x1 = 0.4189, x2 = 0.2649	0.25	125
313.15 K, 100 kPa, x1 = 0.2745, x2 = 0.3509	–	23.4
313.15 K, 100 kPa, x1 = 0.3106, x2 = 0.3509	–	30.1
313.15 K, 100 kPa, x1 = 0.3509, x2 = 0.3509	–	41.2
313.15 K, 100 kPa, x1 = 0.3868, x2 = 0.3509	–	57.6
313.15 K, 100 kPa, x1 = 0.4189, x2 = 0.3509	–	78.2
313.15 K, 100 kPa, x1 = 0.4478, x2 = 0.3509	–	102
313.15 K, 100 kPa, x1 = 0.474, x2 = 0.3509	–	142
313.15 K, 100 kPa, x1 = 0.4978, x2 = 0.3509	–	197
323 K, 101 kPa, x1 = 0.2649, x2 = 0	2.04	21.8
323 K, 101 kPa, x1 = 0.2649, x2 = 0.2649	1.45	18.2
323 K, 101 kPa, x1 = 0.4189, x2 = 0.2649	0.38	78.5
323.15 K, 100 kPa, x1 = 0.2745, x2 = 0.3509	–	16.7
323.15 K, 100 kPa, x1 = 0.3106, x2 = 0.3509	–	21.4
323.15 K, 100 kPa, x1 = 0.3509, x2 = 0.3509	–	29
323.15 K, 100 kPa, x1 = 0.3868, x2 = 0.3509	–	39
323.15 K, 100 kPa, x1 = 0.4189, x2 = 0.3509	–	50.9
323.15 K, 100 kPa, x1 = 0.4478, x2 = 0.3509	–	61.3
323.15 K, 100 kPa, x1 = 0.474, x2 = 0.3509	–	89.2
323.15 K, 100 kPa, x1 = 0.4978, x2 = 0.3509	–	120
333 K, 101 kPa, x1 = 0.2649, x2 = 0	2.58	16.2
333 K, 101 kPa, x1 = 0.2649, x2 = 0.2649	1.83	13.8
333 K, 101 kPa, x1 = 0.4189, x2 = 0.2649	0.53	51.9
333.15 K, 100 kPa, x1 = 0.2745, x2 = 0.3509	–	12.4
333.15 K, 100 kPa, x1 = 0.3106, x2 = 0.3509	–	15.9
333.15 K, 100 kPa, x1 = 0.3509, x2 = 0.3509	–	20.1
333.15 K, 100 kPa, x1 = 0.3868, x2 = 0.3509	–	26.2
333.15 K, 100 kPa, x1 = 0.4189, x2 = 0.3509	–	34.2
333.15 K, 100 kPa, x1 = 0.4478, x2 = 0.3509	–	41.8
333.15 K, 100 kPa, x1 = 0.474, x2 = 0.3509	–	53.7
333.15 K, 100 kPa, x1 = 0.4978, x2 = 0.3509	–	78.1
343.15 K, 100 kPa, x1 = 0.2745, x2 = 0.3509	–	9.49
343.15 K, 100 kPa, x1 = 0.3106, x2 = 0.3509	–	12.2
343.15 K, 100 kPa, x1 = 0.3509, x2 = 0.3509	–	15.2
343.15 K, 100 kPa, x1 = 0.3868, x2 = 0.3509	–	19.1
343.15 K, 100 kPa, x1 = 0.4189, x2 = 0.3509	–	24.5
343.15 K, 100 kPa, x1 = 0.4478, x2 = 0.3509	–	29.6
343.15 K, 100 kPa, x1 = 0.474, x2 = 0.3509	–	37.2
343.15 K, 100 kPa, x1 = 0.4978, x2 = 0.3509	–	49.7
353.15 K, 100 kPa, x1 = 0.2745, x2 = 0.3509	–	7.49
353.15 K, 100 kPa, x1 = 0.3106, x2 = 0.3509	–	9.62
353.15 K, 100 kPa, x1 = 0.3509, x2 = 0.3509	–	11.8
353.15 K, 100 kPa, x1 = 0.3868, x2 = 0.3509	–	14.5
353.15 K, 100 kPa, x1 = 0.4189, x2 = 0.3509	–	18.4
353.15 K, 100 kPa, x1 = 0.4478, x2 = 0.3509	–	21.9
353.15 K, 100 kPa, x1 = 0.474, x2 = 0.3509	–	27
353.15 K, 100 kPa, x1 = 0.4978, x2 = 0.3509	–	35
363.15 K, 100 kPa, x1 = 0.2745, x2 = 0.3509	–	6.01
363.15 K, 100 kPa, x1 = 0.3106, x2 = 0.3509	–	7.72
363.15 K, 100 kPa, x1 = 0.3509, x2 = 0.3509	–	9.69
363.15 K, 100 kPa, x1 = 0.3868, x2 = 0.3509	–	11.3
363.15 K, 100 kPa, x1 = 0.4189, x2 = 0.3509	–	14.2
363.15 K, 100 kPa, x1 = 0.4478, x2 = 0.3509	–	16.6
363.15 K, 100 kPa, x1 = 0.474, x2 = 0.3509	–	20.3
363.15 K, 100 kPa, x1 = 0.4978, x2 = 0.3509	–	25.7

O=S(=O)([N-]S(=O)(=O)C(F)(F)F)C(F)(F)F.[Li+] + CC[n+]1ccn(C)c1.O=S(=O)([O-])C(F)(F)F
electrical conductivity [S/m], 101 kPa
Conditions	x1 = 0.007746	x1 = 0.01537	x2 = 0.9697	x2 = 0.9746
288.15 K	0.587	0.557	–	0.538
298.15 K	0.844	0.823	0.778	0.785
333.15 K	2.14	2.13	2.04	2.04

OCCO + CC[n+]1ccn(C)c1.O=S(=O)([O-])C(F)(F)F
100 kPa, x1 = 1
Conditions	viscosity [mPa·s]
308.15 K	11.16
318.15 K	7.91
